Reference: publication PMC8242095, “Crystal structure of an archaeal CorB magnesium transporter” (Nature Communications, 2021)
Blank lines part the entries; values can stand above or below the molecule they belong to.

Key:
MtCorBΔC = target: T1, MtCorBΔC (Methanoculleus thermophilus, UniProt A0A1G8XA46); experiment: isothermal titration calorimetry; assay type: binding
T1 construct: gene corB; residues 1-322 (TMD, AHB, CBS-pair; CorC domain deleted), C-terminal His6-tag, E. coli C41(DE3), detergent-solubilized
Description: isothermal titration calorimetry on MtCorBΔC | MtCorBΔC has the highest affinity for ATP, followed by ADP and AMP

MtCorBCBS = target: T2, MtCorBCBS (Methanoculleus thermophilus, UniProt A0A1G8XA46); experiment: isothermal titration calorimetry; also crystal structure […] Å; assay type: binding
T2 construct: gene corB; CBS-pair domain, residues 199-322, GST-tag cut leaving N-terminal GPLGS, E. coli BL21(DE3); crystal 7MSU came from in situ cleavage of MtCorBΔC

[1] = target: the molecule itself; experiment: HDX-MS; MtCorB or MtCorBΔC in MSP1D1 nanodiscs, with and without Mg2+-ATP; exchange for 3, 30, 300 or 3000 s at 20 °C, 100 mM NaCl, 20 mM HEPES pH 7.5
[2] = target: the molecule itself; experiment: crystal structure; MtCorBΔC_(Δloop) in 0.05% UDM with 5 mM ATP and 20 mM MgCl2; hanging drop, 0.1 M sodium citrate pH 5.5, 0.1 M Li2SO4, 0.1 M NaCl, 34% PEG400, 22 °C; 3.25 Å
[3] = target: the molecule itself; experiment: crystal structure; MtCorBΔC R235L in 0.05% UDM, no ATP; hanging drop, 0.1 M sodium citrate pH 5.5, 50 mM Li2SO4, 11% PEG4000, 10 mM MgSO4, 22 °C; 3.8 Å

- Kd (MtCorBΔC): 10.3 ± 1 µM
Molecule: Nc1ncnc2c1ncn2[C@@H]1O[C@H](COP(=O)(O)OP(=O)(O)O)[C@@H](O)[C@H]1O [ADP]

- Kd (MtCorBΔC): 83 ± 17 µM
Molecule: Nc1ncnc2c1ncn2[C@@H]1O[C@H](COP(=O)(O)O)[C@@H](O)[C@H]1O [AMP]

- Kd (MtCorBΔC): 0.59 ± 0.06 µM
- Kd (MtCorBCBS): 0.53 ± 0.05 µM
Molecule: Nc1ncnc2c1ncn2[C@@H]1O[C@H](COP(=O)(O)OP(=O)(O)OP(=O)(O)O)[C@@H](O)[C@H]1O [ATP]

B1: MtCorB (residues 1–426), Methanoculleus thermophilus CorB (natural protein, UniProt A0A1G8XA46 1-426, looked up)
chain: MVVIDLLIVEVVLFIAALLFSGFFSSSEVALISITRAKVHALQSQGRKGAKALDTLKRSTDAIQITTLIGSTIANVAVASLATAIGITLYGNLGIAVGLVVAAVLVLVFGEIGPKMYASRYTEELALRVSRPILFFSKLLYPVLWVTDRIEQQFAFRPGVTEPVVTEEEIKEWIDVGEEEGTIEEEERDMLYSVLRFGDTTAREVMTPRVDVVMIEDTATLESALAIFNETGFSRIPVYHERIDNIVGLLNVKDVFSAVFRQQTSATIRDLMYEPYFIPESKKIDELLKELQVKKQHMAVVLDEYGSFAGIVTVEDMLEELVGEILDEFDEEEPEVQQLEEGIYLVDARTWVEHLNEDLDLNLPLMDTYESIGGLVIERLGHIPRRGEVVKIEESNVTLVVMQMRGRRIVKVKLIIGPPVPPTESR
notes: CorB, Methanoculleus thermophilus, UniProt A0A1G8XA46, residues 1-426; In nanodiscs of soybean polar extract and MSP1D1; filled nanodiscs were recovered on Ni-NTA; also called full-length MtCorB; source: E. coli C41 (DE3), purified (Ni-NTA, SEC), reconstituted into MSP1D1 nanodiscs; not shown: His6, C-terminal, kept
- binding result [1]: binds

B2: MtCorBΔC_(Δloop) (Methanoculleus thermophilus CorB residues 1–322 Δ259–262) (domain or fragment, UniProt A0A1G8XA46 1-322, looked up)
chain: MVVIDLLIVEVVLFIAALLFSGFFSSSEVALISITRAKVHALQSQGRKGAKALDTLKRSTDAIQITTLIGSTIANVAVASLATAIGITLYGNLGIAVGLVVAAVLVLVFGEIGPKMYASRYTEELALRVSRPILFFSKLLYPVLWVTDRIEQQFAFRPGVTEPVVTEEEIKEWIDVGEEEGTIEEEERDMLYSVLRFGDTTAREVMTPRVDVVMIEDTATLESALAIFNETGFSRIPVYHERIDNIVGLLNVKDVFSAQTSATIRDLMYEPYFIPESKKIDELLKELQVKKQHMAVVLDEYGSFAGIVTVEDMLEELV
notes: CorB, Methanoculleus thermophilus, UniProt A0A1G8XA46, residues 1-322 (TMD, AHB and CBS-pair domain; CorC domain deleted) with the internal loop 259-262 deleted; Modelled: chain A residues 5-322, chain B residues 4-154 and 160-322; also called MtCorBΔC with an internal loop deletion; source: E. coli C41 (DE3), purified (Ni-NTA, SEC) in UDM
- binding result [2]: binds

B3: MtCorBΔC R235L (domain or fragment, Methanoculleus thermophilus, UniProt A0A1G8XA46 1-322, looked up)
chain: MVVIDLLIVEVVLFIAALLFSGFFSSSEVALISITRAKVHALQSQGRKGAKALDTLKRSTDAIQITTLIGSTIANVAVASLATAIGITLYGNLGIAVGLVVAAVLVLVFGEIGPKMYASRYTEELALRVSRPILFFSKLLYPVLWVTDRIEQQFAFRPGVTEPVVTEEEIKEWIDVGEEEGTIEEEERDMLYSVLRFGDTTAREVMTPRVDVVMIEDTATLESALAIFNETGFSLIPVYHERIDNIVGLLNVKDVFSAVFRQQTSATIRDLMYEPYFIPESKKIDELLKELQVKKQHMAVVLDEYGSFAGIVTVEDMLEELV
notes: CorB, Methanoculleus thermophilus, UniProt A0A1G8XA46, residues 1-322 (MtCorBΔC) with R235L; also called MtCorBΔC R235L mutant; apo conformation of MtCorBΔC; source: E. coli C41 (DE3), purified (Ni-NTA, SEC) in UDM
- binding result [3]: binds

B4: MtCorBΔC (residues 1–322) (domain or fragment, Methanoculleus thermophilus, UniProt A0A1G8XA46 1-322, looked up)
chain: MVVIDLLIVEVVLFIAALLFSGFFSSSEVALISITRAKVHALQSQGRKGAKALDTLKRSTDAIQITTLIGSTIANVAVASLATAIGITLYGNLGIAVGLVVAAVLVLVFGEIGPKMYASRYTEELALRVSRPILFFSKLLYPVLWVTDRIEQQFAFRPGVTEPVVTEEEIKEWIDVGEEEGTIEEEERDMLYSVLRFGDTTAREVMTPRVDVVMIEDTATLESALAIFNETGFSRIPVYHERIDNIVGLLNVKDVFSAVFRQQTSATIRDLMYEPYFIPESKKIDELLKELQVKKQHMAVVLDEYGSFAGIVTVEDMLEELV
notes: CorB, Methanoculleus thermophilus, UniProt A0A1G8XA46, residues 1-322 (CorC domain deleted); In nanodiscs of soybean polar extract and MSP1D1 (MtCorB:MSP1D1:lipid 2:10:550); filled nanodiscs were recovered on Ni-NTA; also called truncated MtCorB; MtCorB with a C-terminal CorC domain deletion; source: E. coli C41 (DE3), purified (Ni-NTA, SEC), reconstituted into MSP1D1 nanodiscs; not shown: His6, …
- binding result [1]: binds
